In patent US4031218A, “7-(2,3-Dihydroxypropyl-1,3-di-n-propylxanthine and a pharmaceutical composition containing same useful as a bronchial muscle relaxant” (Mallinckrodt, Inc., priority 1976, dated 1977):
Converted amounts (≈) assume the structure as drawn.

What was measured:
[1] = prior art statement; cited from earlier work
[2] = tested on: histamine-induced bronchospasm; experiment: Protection against histamine aerosol in guinea pigs (in vivo bronchodilator); set-up: species or system guinea pig; settings: relative to theophylline, molar basis; for Bronchodilator activity, In-Vivo I.P. (G. Pig), relative molar activity: 15-20 min after injection; for Bronchodilator activity, In-Vivo, Oral (G. Pig), relative molar activity: 35-40 min after gavage
Procedure: With the exception of theophylline, all compounds were administered as the free base dissolved or suspended in appropriate aqueous vehicles. […] Final comparisons were always based on the calculated dose of theophylline. Because of obvious differences in molecular weights, all compounds were compared on a molar basis rather than on absolute weight.
2. Protection Against Histamine Aerosol
Adult Camm English Short Hair male albino guinea pigs (270-600 gm.) were singularly confined in an inverted glass aquarium and continuously exposed to a finely atomized mist of 0.5% histamine diphosphate produced by a Devilbiss No. 40 nebulizer and compressed air at 300 mm. Hg. pressure. The period from the start of aerosolization until the appearance of ultimate collapse or convulsions is defined as the preconvulsive time and is relatively constant in the same animal. Preconvulsive times were determined for each dose of each compound in at least six guinea pigs. Control preconvulsive times were obtained three days prior to and three days following drug administration. Percent protection afforded by each compound was calculated by the formula:
% Protection = (1- C/T) × 100
where C is the average control preconvulsive time and T is the test preconvulsive time after compound administration, both in seconds.
(§1) The PD50 of each experimental compound was determined after both intraperitoneal and oral administration. A minimum of 3 dose levels and 6 animals per dose were employed to obtain meaningful dose-response data. Protection was assessed 15-20 minutes after intraperitoneal injection and 35-40 minutes after oral gavage with a flexible plastic tube. Animals were fasted overnight prior to oral dosing. All compounds were administered in aqueous solution in concentrations commensurate to a proper volume dose. Guinea pigs were utilized between 1 and 3 times but no animal received the same compound twice in succession with a minimum of 3 days rest between doses.

dogs [3] = experiment: Intravenous cardiovascular evaluation in dogs; settings: for CF (coronary flow) change / CO (cardiac output) change / CW (cardiac work) change / HR (heart rate) change / MAP (mean arterial pressure) change / MCF (myocardial contractile force) change / TPR (total peripheral resistance) change / Cardiovascular effects (Mean): i.v. dogs, estimated at HBD; for I.V. Cardiovascular (Dogs), mean relative molar activity: mean for arterial pressure, heart rate, contractile force, cardiac output, stroke volume, cardiac work, TPR, coronary flow and resistance, relative to theophylline; for Cardiovascular effects (Mean): mean of the cardiovascular changes
Procedure: Intravenous Cardiovascular Evaluation in Dogs
Thirteen adult mongrel dogs of either sex ranging in weight from 16.7 to 25.0 kg were employed to compare the overall intravenous cardiovascular activity of the five experimental compounds.
Dogs were anesthetized with pentobarbital sodium, 30-35 mg/kg i.v., fitted with a cuffed endotracheal tube, and ventilated with a Harvard Animal Respiratory Pump. A femoral vein was cannulated for i.v. drug administration. The left common carotid artery was cannulated and the cannula tip advanced into the aortic arch. A median sternotomy was performed and appropriately sized electromagnetic blood flow transducers (Biotronex) were placed around the ascending aorta and left anterior descending coronary artery. These procedures allowed continuous recording or calculation of the following parameters:
a. Mean Arterial Pressure (MAP); from the aortic cannula.
b. Heart Rate (HR); electronically from pulsatile ascending aortic flow.
c. Cardiac Output (CO); mean ascending aortic flow.
d. Myocardial Contractile Force (MCF); dQ/dt, the first derivative of maximum aortic flow rate, also known as peak aortic flow acceleration.
e. Stroke Volume (SV); quotient of CO/HR.
f. Cardiac Work (CW); product of CO X MAP.
g. Total Peripheral Resistance (TPR); quotient of MAP/CO.
h. Coronary Flow (CF); mean left anterior descending (LAD) coronary flow.
i. Coronary Resistance (CR); quotient of MAP/CF.
Logarithmically increasing doses of the appropriate compound were injected at 20-minute intervals. Responses were measured at 1, 2, 5, 10, 15 and 20 minutes after each dose and the average response during that period was calculated. Theophylline (aminophylline), dyphylline (II), and Compound V were employed in both 20 and 80 mg/ml concentrations in distilled water. Compounds III and IV were used in 10 and 30 mg/ml concentrations respectively.

[4] = Intravenous emetic study in dogs (ED50); format: in vivo, dog; settings: dog, in vivo, iv; read-out: ED50 (median emetic dose), I.V. Dogs
Procedure: (§2) Twelve adult mongrel dogs of either sex were employed to determine the median emetic dose (ED50) of all five experimental compounds after intravenous administration. […] Onset, frequency, and duration of emetic episodes were also recorded. The dogs were not fasted, were allowed at least 2 days rest between doses, and no animal received the same compound twice in succession. […] ED50 values were calculated according to the method of Litchfield and Wilcoxon (1949).

dogs [5] = experiment: Intravenous emetic study in dogs (ED50); format: in vivo, dog; settings: for Emetic effect, I.V. Dogs: estimated at HBD; for I.V. Emetic (Dogs), relative molar activity: relative to theophylline, molar basis
Procedure: as §2

[6] = Summary of relative molar activities (means and therapeutic efficacy); settings: for Therapeutic Efficacy: mean bronchodilator (therapeutic) activity divided by mean acute toxic and side effect activity; for Mean acute toxicity and side effect activity (relative molar): mean of acute toxicity and side effect lines of Table I; for Mean acute toxicity and side effect activity (relative molar) / Mean bronchodilator activity (relative molar): relative to theophylline; for Mean bronchodilator activity (relative molar): mean of bronchodilator lines of Table I
Excerpt: ^g - Mean bronchodilator (therapeutic) activity divided by mean acute

Solubility = settings: for Solubility in words: water solubility, qualitative
[7] = Oral LD50 / oral PD50 ratio in guinea pigs; settings: guinea pig, in vivo, median lethal dose / median protective dose, relative to theophylline, read-out: Oral LD50 / Oral PD50 (G. Pig), relative
Procedure: where C is the average control preconvulsive time and T is the test preconvulsive time after compound administration, both in seconds. Animals with control preconvulsive times greater than 2 minutes were not used and if test preconvulsive time was longer than 10 minutes, 100% protection was arbitrarily assumed. The dose of each compound causing 50% protection (PD50) was calculated by the method of Litchfield and Wilcoxon (J. Pharmacol. Exp. Ther. 96:99, 1949).
as §1
2. Oral LD50 in Guinea Pigs
The acute median lethal dose of each compound after oral administration was also determined in guinea pigs. Camm English Short Hair albino guinea pigs with sexes equally represented and ranging in weight from 255 to 311 gm. were used. A minimum of six animals per dose level were employed. Oral dosing was accomplished with a flexible tube inserted into the stomach. All guinea pigs were fasted overnight. […] The other compounds were dissolved in distilled water. Following administration of the appropriate doses, acute responses and lethalities were observed and LD50 values were calculated by the method of Litchfield and Wilcoxon (J. Pharmacol. Exp. Ther. 96:99, 1949).

mice = experiment: Voluntary motor activity in mice (CNS stimulation); format: in vivo, male albino Swiss mice; settings: for I.P. CNS Stimulation (Mice), relative molar activity: relative to theophylline, molar basis; for CNS Activity, I.P. Mice / CNS Activity, I.P. Mice, change: estimated at HBD; for CNS Activity, I.P. Mice, change: voluntary motor activity
Procedure: F. Voluntary Motor Activity Studies in Mice In an attempt to quantitatively assess central nervous system activity, each compound was evaluated for its influence on voluntary motor activity in mice according to the method described by Dews (British J. Pharmacol. 8:46, 1953). Three cylindrical actophotometer cages were utilized simultaneously, each with six light beams and six photoelectric cells. Individual digital counters were connected to each activity cage. Male albino Swiss mice with weights ranging between 19 and 24 gm were used throughout. Compounds were dissolved in distilled water and were injected intraperitoneally in logarithmically spaced doses to groups of five mice, three groups per dose level. Control groups received saline.

dog hind limb = experiment: Dog hind limb perfusion preparation (vasodilator); format: in vivo; settings: intra-arterial; relative to theophylline, molar basis
Excerpt: 1. Dog Hind Limb Perfusion Preparation
A total of 12 adult mongrel dogs of either sex were used to assess the direct intra-arterial dilating capacity of the five experimental compounds. […] This was accomplished with a Harvard Variable Speed Peristaltic Pump after proximal and distal cannualtion of the femoral artery. Changes in arterial vascular resistance were reflected as changes in perfusion pressure as measured from a T-tube on the distal side of the pump. Mean systemic arterial pressure was also recorded from the contralateral femoral artery. Drug solutions, dissolved in saline, were injected into the arterial blood supply immediately prior to entering the cannulated distal artery. Logarithmically increasing doses were given at 10-minute intervals and responses were recorded.

Bronchodilator activity = settings: compared with theophylline
isolated rabbit heart = experiment: Isolated rabbit heart preparation (Langendorff); format: cell-based; settings: mean for myocardial contractile force, heart rate, coronary flow; relative to theophylline
Procedure: 2. Isolated Rabbit Heart Preparation
In-vitro cardiodynamic activity of each compound except dyphylline was determined on the spontaneously beating isolated rabbit heart by the Langendorff method as modified by Anderson and Craver (J. Pharmacol. Exp. Ther., 93:135, 1948). After securing the extracted heart's ascending aorta to the apparatus, the coronaries were continuously perfused with aerated Chenoweth's solution (Chenoweth and Koelle, J. Lab. Clin. 31:600, 1946) maintained at a constant pressure-head and temperature of 38° C. The effects of logarithmically increasing doses of each compound were determined on contractile force, heart rate, and coronary flow. Drugs were dissolved in minimal volumes of Chenoweth's solution and injected into the downspout containing perfusate at 5-10 minute intervals.

| Structure (SMILES) | Bronchodilator activity, In-Vivo I.P. (G. Pig), relative molar activity [2] | Bronchodilator activity, In-Vivo, Oral (G. Pig), relative molar activity [2] | CF (coronary flow) change (dogs [3]) | CO (cardiac output) change (dogs [3]) | CW (cardiac work) change (dogs [3]) | HR (heart rate) change (dogs [3]) | MAP (mean arterial pressure) change (dogs [3]) | MCF (myocardial contractile force) change (dogs [3]) | TPR (total peripheral resistance) change (dogs [3]) | I.V. Cardiovascular (Dogs), mean relative molar activity (dogs [3]) | Cardiovascular effects (Mean) (dogs [3]) | ED50 [4] [mg/kg] | Emetic effect, I.V. Dogs (dogs [5]) | I.V. Emetic (Dogs), relative molar activity (dogs [5]) | Therapeutic Efficacy [6] | Mean acute toxicity and side effect activity (relative molar) [6] | Mean bronchodilator activity (relative molar) [6] | solubility (Solubility; water) [mg/mL] | selectivity ratio [7] | I.P. CNS Stimulation (Mice), relative molar activity (mice) | also measured |
| --- | --- | --- | --- | --- | --- | --- | --- | --- | --- | --- | --- | --- | --- | --- | --- | --- | --- | --- | --- | --- | --- |
| Cn1c(=O)c2c(ncn2CC(O)CO)n(C)c1=O (stereo not shown) [Compound II, 7-(2,3-dihydroxypropyl) 1,3-dimethylxanthine] | 0.12 | 0.13 | +10 %Δ | -15 %Δ | -30 %Δ | +11 ΔBPM | -20 ΔmmHg | -5 %Δ | +3 %Δ | 0.36 | 13 | 900 | None | 0.09 | 2.31 | 0.26 | 0.60 | 330 (≈ 1300 mM) | 2 | 0.18 | Side effects / tolerance in words (prior art) [1]: few of the usual theophylline-like side effects; Vasodilator, HLPP (Dogs), relative molar activity (dog hind limb): 0.06 |
| CCCn1c(=O)c2c(ncn2CC(O)CO)n(CCC)c1=O (stereo not shown) [Compound V, 7-(2,3-dihydroxypropyl)-1,3-di-n-propylxanthine] | 1.56 | 0.75 | +17 %Δ | +6 %Δ | +2 %Δ | +7 ΔBPM | -5 ΔmmHg | +15 %Δ | -9 %Δ | 0.91 | 9 | 53 | None | 1.91 | 2.51 | 0.70 | 1.76 | 100 (≈ 322 mM) | 3.75 | 0.30 | solubility (Solubility; chloroform, organic solvent or mixture): ~310 mg/mL (≈ 999 mM); Solubility in words (Solubility): considerably more water soluble than theophylline; Bronchodilator potency in words (Bronchodilator activity): comparable to theophylline as a bronchodilator; In-Vitro; MCF, HR, CF (Rabbit Heart), mean relative molar activity (isolated rabbit heart): 0.93; CNS Activity, I.P. Mice (mice): None; CNS Activity, I.P. Mice, change (mice): -1 %Δ; Vasodilator, HLPP (Dogs), relative molar activity (dog hind limb): 0.40 |
| CCCn1c(=O)c2c(ncn2CC(C)O)n(CCC)c1=O (stereo not shown) [III, 7-(2-hydroxypropyl) 1,3-di-n-propylxanthine] | 3.26 | 3.30 | +8 %Δ | +10 %Δ | +2 %Δ | +21 ΔBPM | -8 ΔmmHg | +28 %Δ | -15 %Δ | 1.16 | 13 | 0.7 | Severe | 134.17 | 0.09 | 36.55 | 3.46 | 10 (≈ 34 mM) | 5.43 | 1.73 | Side effects / tolerance in words (prior art) [1]: well tolerated; Solubility in words (Solubility): low solubilities; Bronchodilator potency in words (Bronchodilator activity): more potent bronchodilators than theophylline; In-Vitro; MCF, HR, CF (Rabbit Heart), mean relative molar activity (isolated rabbit heart): 1.40; CNS Activity, I.P. Mice (mice): Severe; CNS Activity, I.P. Mice, change (mice): -60 %Δ; Vasodilator, HLPP (Dogs), relative molar activity (dog hind limb): 0.76 |
| CCCn1c(=O)c2c(ncn2CCCO)n(CCC)c1=O [IV, 7-(3-hydroxypropyl)-1,3-di-n-propylxanthine] | 0.94 | 0.92 | +4 %Δ | +2 %Δ | -26 %Δ | +80 ΔBPM | -25 ΔmmHg | +20 %Δ | -5 %Δ | 2.02 | 23 | 7.5 | Moderate | 12.88 | 0.72 | 2.60 | 1.87 | 30 (≈ 102 mM) | 3.57 | 0.48 | Side effects / tolerance in words (prior art) [1]: well tolerated; Solubility in words (Solubility): low solubilities; Bronchodilator potency in words (Bronchodilator activity): more potent bronchodilators than theophylline; In-Vitro; MCF, HR, CF (Rabbit Heart), mean relative molar activity (isolated rabbit heart): 1.81; CNS Activity, I.P. Mice (mice): Moderate; CNS Activity, I.P. Mice, change (mice): -17 %Δ; Vasodilator, HLPP (Dogs), relative molar activity (dog hind limb): 1.06 |
